We go through 12 cell lines from the supplement of paper PMC10307832.

Experiment in all cases: relative viability (nuclei count vs DMSO), 5 days (fraction); higher = more cells survive
Compound in the assay “Irinotecan + OSI-027”: CCc1c2c(nc3ccc(OC(=O)N4CCC(N5CCCCC5)CC4)cc13)-c1cc3c(c(=O)n1C2)COC(=O)[C@]3(O)CC [Irinotecan] + COc1cccc2cc(-c3nc([C@H]4CC[C@H](C(=O)O)CC4)n4ncnc(N)c34)[nH]c12 [OSI-027] (partner 0.5 µM)
The procedure, abridged:
(§1)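 Lung cancer cell lines in 1536-well plates got either a single drug or a fixed anchor-drug dose together with five library-drug doses (not always all listed) in √10 steps, by pin tool, on the day after seeding. Nuclei were counted after 5 days, and relative viability is the treated-to-vehicle ratio of nuclei counts. Values are medians of duplicate plates.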

Compound in the assay “RU-SKI 43 + Palbociclib”: CC[C@@H](C)CNCC(=O)N1CCC2=C([C@@H]1COC3=CC=CC(=C3)C)C=CS2 [RU-SKI 43] + CC(=O)c1c(C)c2cnc(Nc3ccc(N4CCNCC4)cn3)nc2n(C2CCCC2)c1=O [Palbociclib] (partner 0.5 µM)
The procedure, abridged:
as §1

Compound in the assay “RU-SKI 43 + Dasatinib”: CC[C@@H](C)CNCC(=O)N1CCC2=C([C@@H]1COC3=CC=CC(=C3)C)C=CS2 [RU-SKI 43] + Cc1nc(Nc2ncc(C(=O)Nc3c(C)cccc3Cl)s2)cc(N2CCN(CCO)CC2)n1 [Dasatinib] (partner 0.075 µM)
The procedure, abridged: as §1

Compound in the assay “Irinotecan + AZD7762”: CCc1c2c(nc3ccc(OC(=O)N4CCC(N5CCCCC5)CC4)cc13)-c1cc3c(c(=O)n1C2)COC(=O)[C@]3(O)CC [Irinotecan] + NC(=O)Nc1cc(-c2cccc(F)c2)sc1C(=O)N[C@H]1CCCNC1 [AZD7762] (partner 0.2 µM)
Summed up:
as §1

NCI-H661: the relative viability in the assay with Irinotecan + OSI-027 (first compound 0.6325 µM) amounted to 0.653; in the assay with Irinotecan + OSI-027 (first compound 2 µM), 0.654; in the assay with Irinotecan + OSI-027 (first compound 6.325 µM) it was 0.415; with Irinotecan + OSI-027 (first compound 20 µM), 0.212; in the assay with RU-SKI 43 + Palbociclib (first compound 0.1 µM) it was 0.384; in the assay with RU-SKI 43 + Palbociclib (first compound 0.3162 µM), 0.398. Also, the relative viability with RU-SKI 43 + Palbociclib (first compound 1 µM) was 0.401; in the assay with RU-SKI 43 + Palbociclib (first compound 3.162 µM), 0.348; with RU-SKI 43 + Palbociclib (first compound 10 µM) it was 0.344; in the assay with RU-SKI 43 + Dasatinib (first compound 0.1 µM), 0.923; with RU-SKI 43 + Dasatinib (first compound 0.3162 µM) it was 0.964; with RU-SKI 43 + Dasatinib (first compound 1 µM), 0.931. Moreover, the relative viability with RU-SKI 43 + Dasatinib (first compound 3.162 µM) stood at 0.83; with RU-SKI 43 + Dasatinib (first compound 10 µM), 0.843.
Consider NCI-H1563, for which the relative viability stood at 0.704 in the assay with Irinotecan + OSI-027 (first compound 0.6325 µM); 0.843 in the assay with Irinotecan + OSI-027 (first compound 2 µM); 0.865 with Irinotecan + OSI-027 (first compound 6.325 µM); 0.589 with Irinotecan + OSI-027 (first compound 20 µM); 0.4 with RU-SKI 43 + Dasatinib (first compound 0.1 µM); 0.409 in the assay with RU-SKI 43 + Dasatinib (first compound 0.3162 µM). In addition, the relative viability with RU-SKI 43 + Dasatinib (first compound 1 µM) stood at 0.534; in the assay with RU-SKI 43 + Dasatinib (first compound 3.162 µM), 0.404; in the assay with RU-SKI 43 + Dasatinib (first compound 10 µM) it was 0.467.
Take NCI-H1623: the relative viability came out at 0.415 with Irinotecan + OSI-027 (first compound 0.6325 µM); 0.415 with Irinotecan + OSI-027 (first compound 2 µM); 0.303 in the assay with Irinotecan + OSI-027 (first compound 6.325 µM); 0.294 with Irinotecan + OSI-027 (first compound 20 µM); 0.513 with RU-SKI 43 + Dasatinib (first compound 0.1 µM); 0.514 with RU-SKI 43 + Dasatinib (first compound 0.3162 µM). Further, the figures for the relative viability with RU-SKI 43 + Dasatinib (first compound 1 µM), in the assay with RU-SKI 43 + Dasatinib (first compound 3.162 µM) and with RU-SKI 43 + Dasatinib (first compound 10 µM) were 0.668, 0.541 and 0.468, respectively.
In the case of NCI-H1648, the relative viability was found to be 0.238 with Irinotecan + OSI-027 (first compound 0.6325 µM); 0.242 with Irinotecan + OSI-027 (first compound 2 µM); 0.255 with Irinotecan + OSI-027 (first compound 6.325 µM); 0.268 in the assay with Irinotecan + OSI-027 (first compound 20 µM); 0.284 with RU-SKI 43 + Palbociclib (first compound 0.1 µM); 0.26 in the assay with RU-SKI 43 + Palbociclib (first compound 0.3162 µM). The relative viability with RU-SKI 43 + Palbociclib (first compound 1 µM) stood at 0.257; in the assay with RU-SKI 43 + Palbociclib (first compound 3.162 µM), 0.304; with RU-SKI 43 + Palbociclib (first compound 10 µM), 0.271; with Irinotecan + AZD7762 (first compound 0.6325 µM), 0.562; with Irinotecan + AZD7762 (first compound 2 µM) it was 0.768; with Irinotecan + AZD7762 (first compound 6.325 µM), 0.434. The relative viability with Irinotecan + AZD7762 (first compound 20 µM) was 0.466.
With NCI-H1650, the relative viability was 0.902 in the assay with Irinotecan + OSI-027 (first compound 2 µM); 0.575 with Irinotecan + OSI-027 (first compound 6.325 µM); 0.196 with Irinotecan + OSI-027 (first compound 20 µM); 0.375 with RU-SKI 43 + Palbociclib (first compound 0.1 µM); 0.346 with RU-SKI 43 + Palbociclib (first compound 0.3162 µM); 0.338 with RU-SKI 43 + Palbociclib (first compound 1 µM). Moreover, the relative viability in the assay with RU-SKI 43 + Palbociclib (first compound 3.162 µM) was found to be 0.351; with RU-SKI 43 + Palbociclib (first compound 10 µM) it was 0.302; in the assay with RU-SKI 43 + Dasatinib (first compound 0.1 µM), 0.356; with RU-SKI 43 + Dasatinib (first compound 0.3162 µM), 0.362; in the assay with RU-SKI 43 + Dasatinib (first compound 1 µM) it was 0.373; with RU-SKI 43 + Dasatinib (first compound 3.162 µM), 0.36. Moreover, in the assay with RU-SKI 43 + Dasatinib (first compound 10 µM), the relative viability is 0.279.
Take NCI-H1703: the relative viability with Irinotecan + AZD7762 (first compound 2 µM) came to 0.124; with Irinotecan + AZD7762 (first compound 6.325 µM), 0.128; in the assay with Irinotecan + AZD7762 (first compound 20 µM) it was 0.181.
Take NCI-H2009: the relative viability in the assay with Irinotecan + OSI-027 (first compound 0.6325 µM) stood at 0.491; with Irinotecan + OSI-027 (first compound 2 µM) it was 0.508; in the assay with Irinotecan + OSI-027 (first compound 6.325 µM), 0.314; in the assay with Irinotecan + OSI-027 (first compound 20 µM), 0.124; with RU-SKI 43 + Palbociclib (first compound 0.1 µM), 0.181; with RU-SKI 43 + Palbociclib (first compound 0.3162 µM), 0.214. For the same cell line, the relative viability is 0.219 with RU-SKI 43 + Palbociclib (first compound 1 µM); 0.229 with RU-SKI 43 + Palbociclib (first compound 3.162 µM); 0.194 in the assay with RU-SKI 43 + Palbociclib (first compound 10 µM); 0.314 in the assay with RU-SKI 43 + Dasatinib (first compound 0.1 µM); 0.296 with RU-SKI 43 + Dasatinib (first compound 0.3162 µM); 0.324 with RU-SKI 43 + Dasatinib (first compound 1 µM). Besides, the relative viability with RU-SKI 43 + Dasatinib (first compound 3.162 µM) stood at 0.289; with RU-SKI 43 + Dasatinib (first compound 10 µM) it was 0.276.
For the cell line NCI-H2023, the relative viability with Irinotecan + OSI-027 (first compound 0.6325 µM) is 0.319; with Irinotecan + OSI-027 (first compound 2 µM), 0.377; in the assay with Irinotecan + OSI-027 (first compound 6.325 µM) it was 0.238; with Irinotecan + OSI-027 (first compound 20 µM), 0.0537; with RU-SKI 43 + Palbociclib (first compound 0.1 µM) it was 0.383; in the assay with RU-SKI 43 + Palbociclib (first compound 0.3162 µM) it was 0.385. Moreover, the relative viability with RU-SKI 43 + Palbociclib (first compound 1 µM) is 0.444; with RU-SKI 43 + Palbociclib (first compound 3.162 µM), 0.451; with RU-SKI 43 + Palbociclib (first compound 10 µM), 0.311; with RU-SKI 43 + Dasatinib (first compound 0.1 µM), 0.581; with RU-SKI 43 + Dasatinib (first compound 0.3162 µM), 0.835; with RU-SKI 43 + Dasatinib (first compound 1 µM), 0.649. For the same cell line, the results for the relative viability in the assay with RU-SKI 43 + Dasatinib (first compound 3.162 µM) and with RU-SKI 43 + Dasatinib (first compound 10 µM) were 0.599 and 0.61, respectively.
NCI-H2228: the relative viability in the assay with Irinotecan + OSI-027 (first compound 0.6325 µM) is 0.341; in the assay with Irinotecan + OSI-027 (first compound 2 µM), 0.472; with Irinotecan + OSI-027 (first compound 6.325 µM), 0.288; in the assay with Irinotecan + OSI-027 (first compound 20 µM) it was 0.342; with RU-SKI 43 + Palbociclib (first compound 0.1 µM), 0.735; with RU-SKI 43 + Palbociclib (first compound 0.3162 µM), 1.05. The relative viability was 0.892 with RU-SKI 43 + Palbociclib (first compound 1 µM); 0.535 in the assay with RU-SKI 43 + Palbociclib (first compound 3.162 µM); 0.737 with RU-SKI 43 + Palbociclib (first compound 10 µM); 0.74 in the assay with RU-SKI 43 + Dasatinib (first compound 0.1 µM); 0.658 in the assay with RU-SKI 43 + Dasatinib (first compound 0.3162 µM); 0.486 with RU-SKI 43 + Dasatinib (first compound 1 µM). Moreover, the values for the relative viability in the assay with RU-SKI 43 + Dasatinib (first compound 3.162 µM) and with RU-SKI 43 + Dasatinib (first compound 10 µM) were 0.555 and 0.425, respectively.
SK-LU-1: the relative viability was 0.302 in the assay with Irinotecan + OSI-027 (first compound 0.6325 µM); 0.301 with Irinotecan + OSI-027 (first compound 2 µM); 0.293 with Irinotecan + OSI-027 (first compound 6.325 µM); 0.238 with Irinotecan + OSI-027 (first compound 20 µM); 0.386 with RU-SKI 43 + Palbociclib (first compound 0.1 µM); 0.386 with RU-SKI 43 + Palbociclib (first compound 0.3162 µM). Moreover, the relative viability with RU-SKI 43 + Palbociclib (first compound 1 µM) is 0.403; with RU-SKI 43 + Palbociclib (first compound 3.162 µM), 0.416; with RU-SKI 43 + Palbociclib (first compound 10 µM), 0.354; with RU-SKI 43 + Dasatinib (first compound 0.1 µM) it was 0.163; with RU-SKI 43 + Dasatinib (first compound 0.3162 µM), 0.172; in the assay with RU-SKI 43 + Dasatinib (first compound 1 µM), 0.172. Moreover, the relative viability is 0.194 with RU-SKI 43 + Dasatinib (first compound 3.162 µM) and 0.159 with RU-SKI 43 + Dasatinib (first compound 10 µM).
With SK-MES-1, the relative viability with Irinotecan + OSI-027 (first compound 0.6325 µM) stood at 0.428; with Irinotecan + OSI-027 (first compound 2 µM), 0.538; with Irinotecan + OSI-027 (first compound 6.325 µM), 0.434; in the assay with Irinotecan + OSI-027 (first compound 20 µM), 0.15; with RU-SKI 43 + Palbociclib (first compound 0.1 µM), 0.292; with RU-SKI 43 + Palbociclib (first compound 0.3162 µM), 0.304. Besides, the relative viability with RU-SKI 43 + Palbociclib (first compound 1 µM) worked out at 0.34; in the assay with RU-SKI 43 + Palbociclib (first compound 3.162 µM), 0.344; with RU-SKI 43 + Palbociclib (first compound 10 µM) it was 0.26; with RU-SKI 43 + Dasatinib (first compound 0.1 µM) it was 0.336; with RU-SKI 43 + Dasatinib (first compound 0.3162 µM), 0.358; in the assay with RU-SKI 43 + Dasatinib (first compound 1 µM) it was 0.357. The relative viability with RU-SKI 43 + Dasatinib (first compound 3.162 µM) stood at 0.342; with RU-SKI 43 + Dasatinib (first compound 10 µM), 0.388.
Regarding SW 1573, the relative viability in the assay with Irinotecan + OSI-027 (first compound 0.6325 µM) worked out at 0.213; with Irinotecan + OSI-027 (first compound 2 µM), 0.566; with Irinotecan + OSI-027 (first compound 6.325 µM) it was 0.231; in the assay with Irinotecan + OSI-027 (first compound 20 µM) it was 0.122; with RU-SKI 43 + Palbociclib (first compound 0.1 µM), 0.37; in the assay with RU-SKI 43 + Palbociclib (first compound 0.3162 µM), 0.453. For the same cell line, the relative viability with RU-SKI 43 + Palbociclib (first compound 1 µM) amounted to 0.397; with RU-SKI 43 + Palbociclib (first compound 3.162 µM), 0.375; with RU-SKI 43 + Palbociclib (first compound 10 µM) it was 0.283; in the assay with RU-SKI 43 + Dasatinib (first compound 0.1 µM), 0.558; with RU-SKI 43 + Dasatinib (first compound 0.3162 µM), 0.816; in the assay with RU-SKI 43 + Dasatinib (first compound 1 µM) it was 0.497. Besides, the relative viability worked out at 0.491 with RU-SKI 43 + Dasatinib (first compound 3.162 µM) and 0.311 in the assay with RU-SKI 43 + Dasatinib (first compound 10 µM).
